{"source": "patent US20260347387A1", "about": "“Lipid-Gold Salt Molecules and Formulation in Lipid Nanoparticle Delivery Systems” (NORTHWESTERN UNIVERSITY, priority 2023, published 2026)", "test_system": "TOV-21G ovarian cancer cells", "assay": "Cell viability assay, TOV-21G clear cell ovarian cancer cells", "type": "cell-based", "details": "Table C, FIGS. 24, 25", "protocol": "In vitro cellular viability assay. ES-2 (2,500 cells/well), 786-0 ccRCCa (400 cells/well), Ramos (16,000 cells/well), SUDHL4 (16,000 cells/well), Jurkat (16,000 cells/well), CWR-R1 (1,000 cells/well), LNCaP (2,000 cells/well), and 22rv1 (2,000 cells/well) were plated into 96 well plates. Adherent ES-2, CWR-R1, LNCaP, 22rv1, and 786-0 cells were incubated for 24 h. Media in the wells was then replaced with pre-prepared media containing the appropriate drug formulations at the appropriate drug concentration. Ramos, SUDHL4, and Jurkat cells are suspension cell lines and were plated and treated on the same day. After 72 h, cell viability was measured via an MTS cell-proliferation assay (CellTiter 96 Aqueous One, Promega; Madison, WI) and the relative cell-survival percentages compared to the vehicle control were plotted against the concentration of either the AuNP or the oc-HDL NPs in logarithmic scale. The data reported represent an average of three measurements.\nAddition of gold salts to HDL-NPs disclosed herein decreased cell viability more than the addition of gold salts to oc-HDL NPs disclosed herein in a clear cell ovarian cancer model (TOV-21Gcell line). Cells were treated with gold-bearing HDL-NPs or gold salts as disclosed herein in an assay described in the Materials and protocols for in vitro studies section above.", "data": [{"compound": "CCP(CC)CC.[Au+].[Cl-]", "note": "[Et3PAuCl, Chloro(triethylphosphine)gold(I)]", "values": [{"measurement": "IC50", "result": 9.74, "unit": "nM"}]}]}
